Tests used:
[1] = target: T1, human EP2 (Homo sapiens, UniProt P43116); assay: PGE2-induced calcium flux assay in CHO-Gα16 cells; type: cell-based
T1 construct: host or cells: CHO-Gα16

[2] = target: T2, ADRA1B (Homo sapiens, UniProt P35368); assay: GPCR calcium flux assay; type: cell-based
T2 construct: Pharmaron (Beijing, China) performed the assay

[3] = target: T3, ADRA1D (Homo sapiens, UniProt P25100); assay: GPCR calcium flux assay; type: cell-based
T3 construct: Pharmaron (Beijing, China) performed the assay

[4] = target: T4, DRD1 (Homo sapiens, UniProt P21728); assay: GPCR calcium flux assay; type: cell-based
T4 construct: Pharmaron (Beijing, China), contract laboratory

[5] = target: T5, OPRD1 (Homo sapiens, UniProt P41143); assay: GPCR calcium flux assay; type: cell-based
T5 construct: Pharmaron (Beijing, China), contract laboratory

[6] = test system: CT26 tumors; assay: CT26 subcutaneous syngeneic tumor model in BALB/c mice; type: in vivo, mouse
Method: (§1) Syngeneic mouse tumor‐bearing models were established as described previously (Tan et al., 2018). Tumor cells (5 × 10^5 ‐ 2 × 10^6) were suspended in 100 μl PBS and implanted subcutaneously into the flank of mice. Mice were randomized into different treatment groups when tumor volumes reached 100‐200 mm^3. V = L×W^2 × 0.52, where L is the longest diameter, and W is the shortest diameter. Tumor size and body weight were recorded every second or third day. Mouse survival was analyzed using the Kaplan–Meier method.
(§2) Single agent or combination treatment was designed as follows: TP‐16 (37.5, 75, 150 mg/kg) or celecoxib (100 mg/kg) was formulated in 0.5% carboxymethylcellulose sodium (CMC‐Na, Sangon Biotech, Shanghai, China) and administered via oral gavage daily. In vivo anti‐PD1 antibody (clone RMP1‐14, BioXCell, West Lebanon, NH, USA) and rat IgG2a isotype control (clone 2A3, BioXCell) were diluted in sterile PBS and administered intraperitoneally at a dose of 50 μg twice weekly.

[7] = test system: 4T1 tumors; assay: 4T1 breast cancer model in BALB/c mice; type: in vivo, mouse; settings: 4T1, BALB/c mice, 75 mg/kg p.o. daily
Method: as §1, §2

[8] = test system: DLD1; assay: Cell viability (MTS); type: cell-based, human; settings: DLD1, 100 µM
From the text: (§3) The murine colon cancer (CT26), murine breast cancer (4T1), and human colon cancer (HCT116, HCT8, HT29, and DLD1) cell lines were obtained from American Type Culture Collection (ATCC). The murine cell lines of melanoma (B16F10), pancreatic cancer (Pan02), and colon cancer (MC38), Chinese hamster ovary (CHO) cell line, and human embryonic kidney cell lines (HEK293 and HEK293T) were purchased from the National Infrastructure of Cell Line Resource (Shanghai, China). Primary human endothelial cells (HUVECs) were kindly provided by Dr. Xinli Wang (Baylor College of Medicine, Houston, TX, USA) and cultured in endothelial cell medium (ScienCell, San Diego, CA, USA) according to the manufacturer’s instructions. The CHO‐Gα16 cell line was established in our previous study and maintained in DMEM/F12 medium containing puromycin (4 μg/ml) (Wu et al., 2018). Cell lines were maintained in vendor recommended growth medium supplemented with 10% FBS (Gibco, Waltham, MA, USA) and 1% penicillin/streptomycin solution (Gibco) at 37°C ins a humidified atmosphere (5% CO2). All cell lines were authenticated using short tandem repeat analysis. All cell lines were confirmed to be mycoplasma‐free by polymerase chain reaction (PCR) analysis. Cell viability was determined using CellTiter 96 ® Aqueous One Solution (Promega, Madison, WI).
(§4) Appendix Figure S1. […]. The cytotoxicity curves
(§5) . Mouse cancer cells: CT26
(§6) . Human colon cancer cells: HCT116 (E),
(§7) HCT8 (F), HT29 (G) and DLD1 (H). Human normal cell line: HUVECs (I). Cell
(§8) viability was measured by MTS. Data are presented as mean ± SEM derived
(§9) from three independent experiments (n=3).
(§10) (1 picture or pasted object on this page, not shown here)

[9] = test system: HCT116; assay: Cell viability (MTS); type: cell-based, human; settings: HCT116, 100 µM
From the text: as §3, §4, §5, §6, §7, §8, §9, §10

[10] = test system: HCT8; assay: Cell viability (MTS); type: cell-based, human; settings: HCT8, 100 µM
From the text: as §3, §4, §5, §6, §7, §8, §9, §10

[11] = test system: HT29; assay: Cell viability (MTS); type: cell-based, human; settings: HT29, 100 µM
From the text: as §3, §4, §5, §6, §7, §8, §9, §10

[12] = test system: HUVEC; assay: Cell viability (MTS); type: cell-based, human; settings: 100 µM
From the text: as §3, §4, §5, §6, §7, §8, §9, §10

[13] = test system: STAT3 and AKT signaling; assay: Western blot of p-STAT3 and p-AKT in bone marrow-derived macrophages; type: cell-based, mouse; settings: BMMs, IL-4 20 ng/ml + 100 nM PGE2, 10 μM TP-16
Method: Briefly, cells and tumor tissues were lysed with radio immunoprecipitation assay buffer containing phosphatase and protease inhibitor cocktail (MedChemExpress, Monmouth Junction, NJ, USA). A total of 30‐80 μg of normalized total proteins from lysates were run on 6‐10% SDS‐polyacrylamide gels. The proteins transferred from gels to nitrocellulose membranes (Millipore, Billerica, MA, USA) were incubated with primary antibodies overnight at 4°C, washed, and incubated with secondary antibodies for 1 h at room temperature. Visual signals were detected using the LI‐COR Odyssey Infrared Imaging System (LI‐COR Biosciences, Lincoln, NE). Mouse protein primary antibodies used for Western blotting were listed as follows: COX2 (1:1000 dilution, 12282, CST), p‐Stat3 (1:2000 dilution, Tyr^705, 9145, CST), Stat3 (1:1000 dilution, 9139, CST), p‐Akt (1:2000 dilution, Ser^473, 4060, CST), Akt (1:1000 dilution, 9272, CST), Arg‐1 (1:100 dilution, 16001, Proteintech, Rosemont, IL), and GAPDH (1:10000 dilution, Ab181602, Abcam).

[14] = target: DRD2 (Homo sapiens, UniProt P14416); assay: LANCE Ultra cAMP assay
[15] = test system: other 25 GPCRs; assay: GPCR selectivity (LANCE Ultra cAMP assay and calcium flux assay); settings: read-out: IC50 on other 25 GPCRs; LANCE Ultra cAMP and calcium flux assays

T1 sequence (P43116 whole entry): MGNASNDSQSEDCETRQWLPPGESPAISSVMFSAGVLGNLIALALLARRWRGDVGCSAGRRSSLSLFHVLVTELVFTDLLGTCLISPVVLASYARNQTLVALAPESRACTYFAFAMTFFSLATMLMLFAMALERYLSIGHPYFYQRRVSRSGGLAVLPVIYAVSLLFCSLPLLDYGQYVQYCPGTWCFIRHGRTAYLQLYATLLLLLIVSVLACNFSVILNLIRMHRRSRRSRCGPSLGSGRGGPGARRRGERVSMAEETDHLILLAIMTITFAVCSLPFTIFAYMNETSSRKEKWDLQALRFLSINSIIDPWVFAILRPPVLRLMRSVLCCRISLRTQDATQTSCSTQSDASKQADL
T2 sequence (P35368 whole entry, species assumed): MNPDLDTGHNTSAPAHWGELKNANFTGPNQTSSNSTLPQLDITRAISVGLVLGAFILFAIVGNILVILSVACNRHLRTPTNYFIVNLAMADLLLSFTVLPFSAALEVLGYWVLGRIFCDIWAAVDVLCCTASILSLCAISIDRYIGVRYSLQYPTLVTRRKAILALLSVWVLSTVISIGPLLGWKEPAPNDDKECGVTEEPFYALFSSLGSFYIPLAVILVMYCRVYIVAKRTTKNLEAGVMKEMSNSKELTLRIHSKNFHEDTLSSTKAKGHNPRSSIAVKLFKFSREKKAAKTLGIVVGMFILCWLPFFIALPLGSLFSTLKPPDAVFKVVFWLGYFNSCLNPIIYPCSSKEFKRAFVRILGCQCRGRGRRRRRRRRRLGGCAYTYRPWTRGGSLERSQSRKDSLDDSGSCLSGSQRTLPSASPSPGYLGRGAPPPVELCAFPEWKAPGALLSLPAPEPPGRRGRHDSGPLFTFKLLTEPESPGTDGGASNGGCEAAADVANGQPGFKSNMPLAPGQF
T5 sequence (P41143 whole entry, species assumed): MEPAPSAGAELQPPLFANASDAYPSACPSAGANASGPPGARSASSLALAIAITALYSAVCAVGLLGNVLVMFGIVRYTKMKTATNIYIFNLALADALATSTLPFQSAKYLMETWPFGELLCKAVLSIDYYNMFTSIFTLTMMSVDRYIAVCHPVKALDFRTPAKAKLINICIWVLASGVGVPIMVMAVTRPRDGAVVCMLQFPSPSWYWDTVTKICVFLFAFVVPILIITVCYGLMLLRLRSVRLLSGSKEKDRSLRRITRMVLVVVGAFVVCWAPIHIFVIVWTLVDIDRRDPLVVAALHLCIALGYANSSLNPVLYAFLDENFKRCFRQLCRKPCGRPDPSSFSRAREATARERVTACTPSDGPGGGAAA
T4 sequence (P21728 whole entry, species assumed): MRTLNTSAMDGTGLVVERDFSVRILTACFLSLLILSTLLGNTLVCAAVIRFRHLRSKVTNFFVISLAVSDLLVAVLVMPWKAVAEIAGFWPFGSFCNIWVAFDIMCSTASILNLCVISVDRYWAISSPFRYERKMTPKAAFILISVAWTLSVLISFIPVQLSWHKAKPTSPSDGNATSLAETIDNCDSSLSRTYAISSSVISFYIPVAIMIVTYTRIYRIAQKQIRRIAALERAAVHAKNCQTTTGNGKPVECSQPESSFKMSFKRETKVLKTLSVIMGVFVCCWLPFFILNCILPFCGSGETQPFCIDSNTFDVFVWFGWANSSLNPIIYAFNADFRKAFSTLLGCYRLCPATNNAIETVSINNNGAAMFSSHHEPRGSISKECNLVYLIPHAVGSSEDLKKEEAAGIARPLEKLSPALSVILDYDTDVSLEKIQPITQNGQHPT
DRD2, sequence (P14416 whole entry, species assumed): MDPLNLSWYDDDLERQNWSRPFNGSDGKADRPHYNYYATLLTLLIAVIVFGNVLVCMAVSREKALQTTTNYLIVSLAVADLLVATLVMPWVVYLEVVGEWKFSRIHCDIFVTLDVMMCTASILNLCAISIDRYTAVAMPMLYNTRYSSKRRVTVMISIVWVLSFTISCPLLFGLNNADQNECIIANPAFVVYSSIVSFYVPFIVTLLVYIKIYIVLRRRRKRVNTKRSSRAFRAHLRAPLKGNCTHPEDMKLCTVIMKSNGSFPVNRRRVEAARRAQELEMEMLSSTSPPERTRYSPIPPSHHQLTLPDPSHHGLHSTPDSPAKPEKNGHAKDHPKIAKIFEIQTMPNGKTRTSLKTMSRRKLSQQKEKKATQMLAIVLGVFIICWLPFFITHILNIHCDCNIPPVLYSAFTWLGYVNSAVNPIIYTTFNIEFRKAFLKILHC
T3 sequence (P25100 whole entry, species assumed): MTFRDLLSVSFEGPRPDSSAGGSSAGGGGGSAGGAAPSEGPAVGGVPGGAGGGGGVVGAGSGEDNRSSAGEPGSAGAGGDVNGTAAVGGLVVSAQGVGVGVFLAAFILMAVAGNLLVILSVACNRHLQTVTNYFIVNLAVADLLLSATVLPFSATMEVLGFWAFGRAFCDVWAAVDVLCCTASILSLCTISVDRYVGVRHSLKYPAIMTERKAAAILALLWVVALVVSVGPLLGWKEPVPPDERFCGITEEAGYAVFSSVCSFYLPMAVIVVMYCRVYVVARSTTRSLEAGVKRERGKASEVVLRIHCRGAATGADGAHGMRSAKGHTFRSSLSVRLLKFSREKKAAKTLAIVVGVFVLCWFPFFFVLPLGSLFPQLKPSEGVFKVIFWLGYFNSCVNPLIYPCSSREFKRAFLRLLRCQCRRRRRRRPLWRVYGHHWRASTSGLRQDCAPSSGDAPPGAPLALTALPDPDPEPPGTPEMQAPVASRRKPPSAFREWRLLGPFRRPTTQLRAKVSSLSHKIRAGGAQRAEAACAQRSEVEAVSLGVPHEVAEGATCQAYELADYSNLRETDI

C[C@H](NC(=O)c1c(Cc2ccc(F)cc2)sc2c1CCOC2)c1ccc(C(=O)O)cc1 [TP-16]
IC50 [1]: > 10 µM | IC50 [2]: > 10 µM | IC50 [3]: > 10 µM | IC50 [4]: > 10 µM | IC50 [5]: > 10 µM | %TGI (tumor growth inhibition) ([6]; CT26, BALB/c mice, 37.5 mg/kg p.o. daily, 16 days): 26.2% | %TGI (tumor growth inhibition) ([6]; CT26, BALB/c mice, 75 mg/kg p.o. daily, 16 days): 47.4% | %TGI (tumor growth inhibition) ([6]; CT26, BALB/c mice, 150 mg/kg p.o. daily, 16 days): 47.6% | anti-tumor efficacy compared with E7046 ([6]; CT26, BALB/c mice, both 150 mg/kg): greater efficacy than E7046 | median survival time ([6]; CT26, BALB/c, TP-16 75 mg/kg p.o. daily, anti-PD-1 50 μg i.p. twice weekly, 2 weeks, control 16 days): 30 days | anti-tumor efficacy compared with celecoxib ([6]; CT26, TP-16 75 mg/kg vs celecoxib 100 mg/kg, p.o. daily, 16 days): superior | %TGI [7]: 27.3% | effect on cell viability [8]: did not affect the viability | effect on cell viability [9]: did not affect the viability | effect on cell viability [10]: did not affect the viability | effect on cell viability [11]: did not affect the viability | effect on cell viability [12]: did not affect the viability | IL-4/PGE2-induced phosphorylation of STAT3 and AKT [13]: significantly reversed | IC50 [14]: > 10 µM | IC50 [15]: > 10 µM

From paper PMC7799360, “Reprogramming immunosuppressive myeloid cells facilitates immunotherapy for colorectal cancer” (EMBO Molecular Medicine, 2020)
